27 compounds from US11497740B2, “Use of Jumonji C demethylase inhibitors for the treatment and prevention of chemotherapy resistance and radioresistance in cancer” (THE BOARD OF REGENTS OF THE UNIVERSITY OF TEXAS SYSTEM, priority 2016, dated 2022) can be followed below.

Holding throughout (type): cell-based, human
In one assay the test system is H1299 T18. The assay can be described thus: MTS cell viability assay, H1299 T18 resistant variant vs H1299 Parental. To be noted: for loss of cell viability: H1299 T18 and H1299 Parental; for H1299 T18 SR (Selectivity Ratio): SR = [IC50 of Parental]/[IC50 of Resistant], H1299 T18 vs H1299 Parental; for cross-resistance of paclitaxel+carboplatin resistant variants: resistant variants (FIGS. 2D, 9). Here is the method:
(§1) NSCLC lines were treated with paclitaxel+carboplatin combination, given in a ˜2:3 wt/wt ratio, to mirror the clinical dosage values of ˜225 mg/m2 and ˜330 mg/m2, paclitaxel and carboplatin respectively. Note that considering the molecular weights of the two drugs, this translates to approximately a 1 to 3.4 molar ratio. Drugs were given in cycles, following a drug on/drug off treatment scheme. Each cycle consisted of 4-5 days of drug treatment and drug-free culturing for about 1-2 weeks or more to allow the surviving cells to repopulate the plate. […] Untreated parental cells were simultaneously maintained at all times for comparison. Cell viability was assessed in 96-well plates using standard MTS assays (Promega). Treatment duration in MTS assays was 4 days. Drugs were tested in two- or four-fold serial dilutions, totaling 8 different drug concentrations, with 8 replicates per concentration. Response was validated in multiple replicate plates (n≥3).
(§2) Cell viability was assessed by standard MTS assays using Promega's CellTiter reagents. Eight drug concentrations given as two- or four-fold dilutions were tested for each chemotherapeutic agent. In addition, each experiment contained eight replicates per concentration and the entire assay was performed in multiple replicates (n≥3).

A further assay concerns H1355 T16. The assay can be described thus: MTS cell viability assay, H1355 T16 resistant variant vs H1355 Parental. To be noted: for loss of cell viability: H1355 T16 and H1355 Parental; for H1355 T16 SR (Selectivity Ratio): SR = [IC50 of Parental]/[IC50 of Resistant], H1355 T16 vs H1355 Parental; for cross-resistance of paclitaxel+carboplatin resistant variant: H1355 T16. Here is the method: as §1, §2

The next assay has as its system HCC4017 T5. The assay can be described thus: MTS cell viability assay, HCC4017 T5 resistant variant vs parental. To be noted: HCC4017 T5 and parental. Here is the method: as §1, §2
Another assay has as its system H1693 T8. The assay is described as follows: MTS cell viability assay, H1693 T8 resistant variant vs parental. To be noted: H1693 T8 and parental. Here is the method: as §1, §2

With `Clc1ccc(N/N=C(/c2ccccc2)c2ccccn2)nc1` (single isomer, unassigned) [Z isomer (Inactive)], the “loss of cell viability” value in the assay with H1299 T18 is on record as “no viability loss”; in the assay on H1355 T16 it was “no loss of cell viability”; with HCC4017 T5 it was “No loss in cell viability”; with H1693 T8, “No loss in cell viability”. For the same compound, in the assay with H1299 T18, the “H1299 T18 SR (Selectivity Ratio)” value is 1.1. For the same compound, in the assay on H1355 T16, the “H1355 T16 SR (Selectivity Ratio)” value is on record as 1.0.
Turning to `NC1CC1c1ccccc1` (stereo not drawn) [2-PCPA], in the assay on H1299 T18, the “H1299 T18 SR (Selectivity Ratio)” value is listed as 1.3. Also, in the assay with H1355 T16, the “H1355 T16 SR (Selectivity Ratio)” value is reported as 1.8.
Taken in the same sequence, the figures for `Nc1ncn([C@@H]2O[C@H](CO)[C@@H](O)[C@H]2O)c(=O)n1` [5-azacytidine] were 0.2 and 2.6.
Regarding `COc1cc2nc(N3CCCN(C)CC3)nc(NC3CCN(Cc4ccccc4)CC3)c2cc1OC` [BIX 01294], in the assay on H1299 T18, the “H1299 T18 SR (Selectivity Ratio)” value is given as 0.9. Also, the “H1355 T16 SR (Selectivity Ratio)” value in the assay on H1355 T16 is on record as 1.9.
Take `N.N.O=C([O-])C1(C(=O)[O-])CCC1.[Pt+2]` [Carboplatin]: the “H1299 T18 SR (Selectivity Ratio)” value in the assay on H1299 T18 was determined as 0.8. Moreover, the “H1355 T16 SR (Selectivity Ratio)” value in the assay with H1355 T16 came to 1.2.
Turning to `Nc1nccc2c1ncn2C1C=C(CO)C(O)C1O` (stereo not drawn) [DZNep], in the assay on H1299 T18, the “H1299 T18 SR (Selectivity Ratio)” value is on record as 0.5. Also, in the assay on H1355 T16, the “H1355 T16 SR (Selectivity Ratio)” value was 1.7.
As to `C/C=C1\NC(=O)[C@H]2CSSCC/C=C/[C@H](CC(=O)N[C@H](C(C)C)C(=O)N2)OC(=O)[C@H](C(C)C)NC1=O` [Depsipeptide], in the assay with H1299 T18, the “H1299 T18 SR (Selectivity Ratio)” value is 0.05 and the “cross-resistance of paclitaxel+carboplatin resistant variants” value is on record as “cross-resistant”. In the assay with H1355 T16, the “cross-resistance of paclitaxel+carboplatin resistant variant” value is recorded as “cross-resistant” and the “H1355 T16 SR (Selectivity Ratio)” value is listed as 0.03.
Consider `CC(=O)O[C@@]12CO[C@@H]1C[C@H](O)[C@@]1(C)C(=O)[C@H](O)C3=C(C)[C@@H](OC(=O)[C@H](O)[C@@H](NC(=O)OC(C)(C)C)c4ccccc4)C[C@@](O)([C@@H](OC(=O)c4ccccc4)[C@H]21)C3(C)C` [Docetaxel], for which, in the assay with H1299 T18, the “H1299 T18 SR (Selectivity Ratio)” value was found to be 0.03 and the “cross-resistance of paclitaxel+carboplatin resistant variants” value is “cross-resistant”. Further, in the assay with H1355 T16, the “cross-resistance of paclitaxel+carboplatin resistant variant” value is reported as “cross-resistant” and the “H1355 T16 SR (Selectivity Ratio)” value stood at 0.002.
On to `COc1cccc2c1C(=O)c1c(O)c3c(c(O)c1C2=O)C[C@@](O)(C(=O)CO)C[C@@H]3O[C@H]1C[C@H](N)[C@H](O)[C@H](C)O1` [Doxorubicin], for which, in the assay on H1299 T18, the “H1299 T18 SR (Selectivity Ratio)” value amounted to 0.04 and the “cross-resistance of paclitaxel+carboplatin resistant variants” value is on record as “cross-resistant”. In addition, in the assay on H1355 T16, the “cross-resistance of paclitaxel+carboplatin resistant variant” value is listed as “cross-resistant” and the “H1355 T16 SR (Selectivity Ratio)” value is recorded as 0.25.
Turning to `O=C(/C=C/c1cccnc1)NCCCCC1CCN(C(=O)c2ccccc2)CC1` [FK866], the “H1299 T18 SR (Selectivity Ratio)” value with H1299 T18 is listed as 0.1. The “H1355 T16 SR (Selectivity Ratio)” value with H1355 T16 came out at 2.1.
Taken in the same sequence, the figures for `CC[C@H](C)n1cc(C)c2c(C(=O)NCc3c(C)cc(C)[nH]c3=O)cc(-c3ccc(N4CCNCC4)nc3)cc21` [GSK 126] were 1.0 and 0.8.
On to `CCOC(=O)CCNc1cc(N2CCc3ccccc3CC2)nc(-c2cccnc2)n1` [GSK-J5], for which the “loss of cell viability” value in the assay on H1299 T18 was “no effect on cell viability”; in the assay on H1355 T16, “no loss of cell viability”.
With `CCc1c2c(nc3ccc(OC(=O)N4CCC(N5CCCCC5)CC4)cc13)-c1cc3c(c(=O)n1C2)COC(=O)[C@]3(O)CC` [Irinotecan], in the assay on H1299 T18, the “H1299 T18 SR (Selectivity Ratio)” value worked out at 1.1. In the assay with H1355 T16, the “H1355 T16 SR (Selectivity Ratio)” value is on record as 2.7.
Taken in the same sequence, the figures for `Cc1sc2c(c1C)C(c1ccc(Cl)cc1)=N[C@@H](CC(=O)OC(C)(C)C)c1nnc(C)n1-2` [JQ1] were 0.6 and 6.6.
Take `CN(C)c1ccc(C(=O)NCCCCCCC(=O)NO)cc1` [M344]: in the assay on H1299 T18, the “H1299 T18 SR (Selectivity Ratio)” value turned out to be 1.1. Also, in the assay on H1355 T16, the “H1355 T16 SR (Selectivity Ratio)” value turned out to be 1.8.
Taken in the same sequence, the figures for `NC1(c2ccc(-c3nc4ccn5c(=O)[nH]nc5c4cc3-c3ccccc3)cc2)CCC1` [MK-2206] were 0.7 and 1.8.
In the same order, the values of `c1cc(SSc2ccns2)sn1` [NU 9056] are 2.0 and 1.0.
In the case of `O=C(/C=C/N1C[C@H]2C[C@@H]1CN2c1ccccn1)c1ccccc1O` [PFI 3], the “H1299 T18 SR (Selectivity Ratio)” value in the assay with H1299 T18 was 1.1. For the same compound, the “H1355 T16 SR (Selectivity Ratio)” value in the assay with H1355 T16 is recorded as 2.5.
In the same order, the values of `O=C1C(=Cc2cccnc2)C(=O)c2ccccc21` [PRT 4165] are 1.0 and 1.4.
In the same order, the values of `CC(=O)O[C@H]1C(=O)[C@@]2(C)[C@H]([C@H](OC(=O)c3ccccc3)[C@]3(O)C[C@H](OC(=O)[C@H](O)[C@@H](NC(=O)c4ccccc4)c4ccccc4)C(C)=C1C3(C)C)[C@]1(OC(C)=O)CO[C@@H]1C[C@@H]2O` [Paclitaxel] are 0.03 and 0.02.
Taken in the same sequence, the figures for `COc1ccc(CCc2nc3cc(-c4c(C)noc4C)ccc3n2C[C@H](C)N2CCOCC2)cc1Cl` [SGC-CBP30] were 1.3 and 0.9.
Take `O=C(CCCCCN1C(=O)c2cccc3cccc(c23)C1=O)NO` [Scriptaid]: the “H1299 T18 SR (Selectivity Ratio)” value in the assay with H1299 T18 came to 1.5. Besides, in the assay with H1355 T16, the “H1355 T16 SR (Selectivity Ratio)” value came to 1.4.
Consider `CC/C(=C(\c1ccccc1)c1ccc(OCCN(C)C)cc1)c1ccccc1` [Tamoxifen], for which, in the assay on H1299 T18, the “H1299 T18 SR (Selectivity Ratio)” value amounted to 1.0. Further, the “H1355 T16 SR (Selectivity Ratio)” value in the assay with H1355 T16 is listed as 1.0.
On to `CC(/C=C/C(=O)NO)=C\[C@@H](C)C(=O)c1ccc(N(C)C)cc1` [Trichostatin A], for which the “H1299 T18 SR (Selectivity Ratio)” value with H1299 T18 was determined as 1.8. Also, in the assay on H1355 T16, the “H1355 T16 SR (Selectivity Ratio)” value stood at 2.6.
Regarding `CCCC(CCC)C(=O)O` [Valproic acid], in the assay with H1299 T18, the “H1299 T18 SR (Selectivity Ratio)” value came to 1.4. Also, the “H1355 T16 SR (Selectivity Ratio)” value with H1355 T16 is 1.3.
On to `CCC1=C[C@@H]2CN(C1)Cc1c([nH]c3ccccc13)[C@@](C(=O)OC)(c1cc3c(cc1OC)N(C)[C@H]1[C@@](O)(C(=O)OC)[C@H](OC(C)=O)[C@]4(CC)C=CCN5CC[C@]31[C@@H]54)C2` [Vinorelbine], for which, in the assay with H1299 T18, the “H1299 T18 SR (Selectivity Ratio)” value is recorded as 0.03 and the “cross-resistance of paclitaxel+carboplatin resistant variants” value is listed as “cross-resistant”. Moreover, in the assay with H1355 T16, the “cross-resistance of paclitaxel+carboplatin resistant variant” value is “cross-resistant” and the “H1355 T16 SR (Selectivity Ratio)” value is reported as 0.002.
As to `Oc1nc(-c2ccc(C(F)(F)F)cc2)nc2c1CSCC2` [XAV939], in the assay on H1299 T18, the “H1299 T18 SR (Selectivity Ratio)” value was found to be 2.7. The “H1355 T16 SR (Selectivity Ratio)” value in the assay with H1355 T16 was 1.0.
